# Entries after “also recorded” stand apart in the source; their conditions may differ.
# What was measured:
# glucose transporters = test: Example 3: glucose transporter inhibitors and hexose analogues in glucose-enhanced 2′OMePS AO uptake into TA muscle; type: in vivo; conditions: 8 week old mdx mice; for effect of sugar or analogue used in place of D-glucose in 2′OMePS AO formulation on dystrophin-positive fibres: same concentration as D-glucose, intramuscular, two weeks; for effect of inhibitor on the enhancing effect of 5% D-glucose formulation of 2′OMePS AO: intramuscular into TA
# Source text: To investigate whether carrier-mediated glucose uptake might be implicated in the mechanism of enhanced AO uptake into muscle, we examined the effects of a range of glucose concentrations using glucose-formulated 2′OMePS AOs. This was studied again via intramuscular administration into 8 week old mdx mice. […] The activity of glucose transporters is known to be stereospecific in that only D-glucose isomers can be actively transported. To further test the idea carrier-mediated glucose uptake might be implicated in the mechanism and to rule out possible osmotic effects of the glucose formulation we investigated the activities of D- and L-glucose isomers in AO formulations. The same concentration of L-glucose was formulated with 2′OMePS AOs and delivered to 8 week old mdx mice by local intramuscular injection.
# To investigate whether specific glucose transporters might be implicated directly in the mechanism of enhanced AO uptake we tested whether or not various inhibitors of glucose transporter function could abolish the enhanced uptake of 2′OMePS AOs into TA muscles in 8 week old mdx mice. Two inhibitor compounds, phloretin and phloridzin, are well-characterised inhibitors of glucose transport. […] That enhanced AO uptake and activity was dependent on a phloretin-sensitive pathway, is a hallmark of involvement of the GLUT family of facilitative glucose transporters. Given that glucose transporter-mediated glucose uptake appeared mechanistically important, we further investigated this by studying whether any products of intracellular glucose metabolism might be implicated downstream in the uptake mechanism. To do this we investigated a glucose analogue, 3-O-methyl glucose (3-OMG) that is effectively transported by glucose transporters but not subject to phosphorylation by glucokinase by using the same concentration of 3-OMG formulated with 2′OMePS AO. Two weeks following intramuscular injection TA muscles cryosections were assayed by immunohistochemistry.
# For intramuscular studies the TA muscle of each experimental mdx mouse was injected with a 40 μl dose of PNA and PNA-peptide conjugates with saline at a final concentration of 125 μg/ml, and the contralateral muscle was injected with saline. For systemic intravenous injections, X μg PNA or PNA-peptide conjugates in 80 μl saline buffer were injected into tail vein of mdx mice at the final dose of 25 mg/kg and 6 mg/kg, respectively. The animals were killed at various time points after injection by CO2 inhalation and tissues were removed and snap-frozen in liquid nitrogen-cooled isopentane and stored at −80° C.
# Sections of 8 μm were cut from at least two-thirds of the muscle length of TA, quadriceps, gastrocnemius, biceps, abdominal wall and diaphragm muscles and cardiac muscle at 100 μm intervals. The sections were then examined for dystrophin expression with a polyclonal antibody 2166 against the dystrophin carboxyl-terminal region. The maximum number of dystrophin-positive fibres in one section was counted using the Zeiss AxioVision fluorescence microscope. The intervening muscle sections were collected either for RT-PCR analysis and Western blot or as serial sections for immunohistochemistry. Polyclonal antibodies were detected by goat-anti-rabbit IgGs Alexa Fluro 594 (Molecular Probe, UK). Routine haematoxylin and eosin staining was used to examine overall muscle morphology and assess the level of infiltrating mononuclear cells. The serial sections were also stained with a panel of polyclonal and monoclonal antibodies for the detection of DAPC protein components. Rabbit polyclonal antibody to neuronal nitric oxide synthase (nNOS) and mouse monoclonal antibodies to β dystroglycan, α-sarcoglycan and β-sarcoglycan were used according to manufacturer's instructions (Novocastra, UK). Polyclonal antibodies were detected by goat-anti-rabbit IgGs Alexa 594 and the monoclonal antibodies by goat-anti-mouse IgGs Alexa 594 (Molecular Probe, UK). […]
# [1] = system: exon and intron 23 of the dystrophin gene; test: Example 1: intramuscular injection into TA muscle of mdx mice, count of dystrophin-positive fibres by immunohistochemistry; type: in vivo; conditions: for dose dependence of dystrophin induction: 5 μg, 10 μg and 20 μg intramuscular; for number of dystrophin-positive fibres per TA muscle: 20 μg intramuscular
# Experimental: Three age groups of mdx mice were used: 20-21 days (referred to as 3 weeks; five mice for each test and control groups), 2-month old (five mice for test groups and control groups), and 5-6 months (referred to 6 months, six mice for each testing and control group). Mice were killed by cervical dislocation at desired time points, and muscles were snap-frozen in liquid nitrogen-cooled isopentane and stored at −80° C.
# One tibialis anterior (TA) muscle of each experimental mdx mouse was injected with a 40 μl dose (3-week-old group injected with 10 μl) of PNA-peptide conjugates with saline at a final concentration of 125 μg/ml, and the contralateral muscle was injected with saline. The animals were sacrificed at various time points after injection, the muscles were removed and snap-frozen in liquid nitrogen-cooled isopentane and stored at −80° C. To examine the dose-response profile, 2-month old mdx mice received the injections of 10 μg and 20 μg of PNA-peptide conjugates.
# Sections of 8 μm were cut from at least two-thirds of muscle length of TA muscles at 100 μm intervals. The sections were then examined for dystrophin expression with a polyclonal antibody 2166 against the dystrophin carboxyl-terminal dystrophin. The maximum number of dystrophin-positive fibres in one section was counted using the Zeiss AxioVision fluorescence microscope. The intervening muscle sections were collected either for Western blot or as serial sections for immunohistochemistry. Polyclonal antibodies were detected by goat-anti-rabbit IgGs Alexa Fluro 594 (Molecular probe). Routine H&E staining was used to examine overall muscle morphology and assess the level of infiltrating mononuclear cells.
# [2] = system: exon 23 of the dystrophin transcript; test: RT-PCR of exon 23 skipping after lipofectin transfection of H2K mdx cells; type: cell-based, mouse; conditions: 250 nm
# Experimental: The H2K mdx myoblasts were cultured at 33° C. under a 10% CO2/90% air atmosphere in high-glucose DMEM supplemented with 20% fetal calf serum, 0.5% chicken embryo extract (PAA laboratories Ltd, Yeovil, UK), and 20 units/ml γ-interferon (Roche applied science, Penzberg, Germany). Cells were then treated with trypsin and plated at 2×10^4 cells per well in 24-well plates coated with 200 ug/ml gelatine (Sigma). H2K mdx cells were transfected 24 h after trypsin treatment in a final volume of 0.5 ml of antibiotic- and serum-free Opti-MEM (Life Technologies). Each well was treated with 250 nM of PNA-peptide complexed with corresponding amounts of lipofectin (weight ratio 1:2=oligolipofectin) (Life Technologies) according to the supplier's instructions. After 4 h of incubation, the transfection medium was replaced with DMEM supplemented medium.
# Cells were transfected as triplicate wells with Lipofectin-Oligonucleotide complexes and total cellular RNA was then extracted 24 h after transfection with RNAeasy mini kit (Qiagen) and 200 ng of RNA template was used for 20 μl RT-PCR with OneStep RT-PCR kit (Qiagen, West Sussex, UK). The primer sequences for the initial RT-PCR were Exon20Fo 5′-[…]-3′ (SEQ ID NO: 125) and Ex26Ro 5′-[…]-3′ (SEQ ID NO: 126) for amplification of mRNA from exons 20 to 26. The cycling conditions were 95° C. for 30 sec, 55° C. for lmin, and 72° C. for 2 min for 30 cycles. […]
# [3] = 2-month old mdx mice, 5 μg intramuscular
# [4] = 2-month old mdx mice, single 5 μg intramuscular injection into TA, two weeks
compound,measurement,setting,value
OCC1OC(O)CC(O)C1O (stereo not drawn) [2-DG],effect of sugar or analogue used in place of D-glucose in 2′OMePS AO formulation on dystrophin-positive fibres,glucose transporters,abolished
"CO[C@@H]([C@H](O)[C@H](O)CO)[C@@H](O)C=O [3-OMG, 3-O-methyl glucose]",effect of sugar or analogue used in place of D-glucose in 2′OMePS AO formulation on dystrophin-positive fibres,glucose transporters,decrease in the number of dystrophin-positive fibres
CO[C@H]1O[C@H](CO)[C@H](O)[C@H](O)[C@H]1O [AMG],effect of sugar or analogue used in place of D-glucose in 2′OMePS AO formulation on dystrophin-positive fibres,glucose transporters,abolished
O=C[C@H](O)[C@@H](O)[C@@H](O)[C@H](O)CO [D-galactose],effect of sugar or analogue used in place of D-glucose in 2′OMePS AO formulation on dystrophin-positive fibres,glucose transporters,replicated
O=C[C@@H](O)[C@@H](O)[C@H](O)[C@H](O)CO [D-mannose],effect of sugar or analogue used in place of D-glucose in 2′OMePS AO formulation on dystrophin-positive fibres,glucose transporters,replicated
O=C[C@@H](O)[C@H](O)[C@@H](O)[C@@H](O)CO [L-glucose],effect of sugar or analogue used in place of D-glucose in 2′OMePS AO formulation on dystrophin-positive fibres,glucose transporters,significant decrease in number of dystrophin-positive myofibres
O=C(CCc1ccc(O)cc1)c1c(O)cc(O)cc1O [phloretin],effect of inhibitor on the enhancing effect of 5% D-glucose formulation of 2′OMePS AO,glucose transporters,completely abolished
O=C(CCc1ccc(O)cc1)c1c(O)cc(O)cc1O[C@@H]1O[C@H](CO)[C@@H](O)[C@H](O)[C@H]1O [phloridzin],effect of inhibitor on the enhancing effect of 5% D-glucose formulation of 2′OMePS AO,glucose transporters,partially but significantly abolished
ASSLNIA-S-S-Lggccaaacctcggcttacct [MSP],dystrophin-positive fibres observed (in words),[1]; [3],large number of dystrophin-positive fibres
same,focal areas with strong dystrophin-positive muscle fibres,[1]; [3],observed
same,dose dependence of dystrophin induction,[1]; 2-month old mdx mice,not significant
same,number of dystrophin-positive fibres,"[1]; 6-month old mdx mice, single 5 μg intramuscular",237±58
IVADNLQQQNTAPQIGTVNSQ-S-S-Lggccaaacctcggcttacct [AAV8],removal of exon 23 from the dystrophin transcript (RT-PCR),[2],efficient removal of exon 23
same,dystrophin-positive fibres observed (in words),[1]; [3],large number of dystrophin-positive fibres
same,dose dependence of dystrophin induction,[1]; 2-month old mdx mice,significant difference between 10 μg and 5 μg injection; also recorded: no further increase
same,number of dystrophin-positive fibres,"[1]; 2-month old mdx mice, 10 μg intramuscular (printed 'bug')",308±20
same,number of dystrophin-positive fibres per TA muscle,[1]; 2-month old mdx mice,282±63
same,number of dystrophin-positive fibres,[1]; [4],171±40
TVAVNLQSSSTDPATGDVHVM-S-S-Lggccaaacctcggcttacct [AAV6],dystrophin-positive fibres in 3-week and 6-month old mice in comparison with 2-month old mice,[1]; 5 μg intramuscular,slightly fewer dystrophin-positive fibres
same,dystrophin-positive fibres observed (in words),[1]; [3],large number of dystrophin-positive fibres
same,focal areas with strong dystrophin-positive muscle fibres,[1]; [3],observed
same,dose dependence of dystrophin induction,[1]; 2-month old mdx mice,"significant difference between 20 μg and 5, 10 μg injection"
same,number of dystrophin-positive fibres per TA muscle,[1]; 2-month old mdx mice,424 (±86)
same,number of dystrophin-positive fibres,[1]; [4],251
